From the METLIN SMRT retention time set (Domingo-Almenara et al. 2019)

Assay: gradient 5% acetonitrile 3 min, to 50% in 2 min, to 85% in 15 min, held 3 min, 100 µL/min
Details: column: Zorbax Extend-C18 2.1 x 50 mm; eluents: water / acetonitrile, 0.1% formic acid
Method in brief: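 Pure standards were run in mixtures of ~100 molecules by HPLC coupled to a quadrupole time-of-flight mass spectrometer. The column was a Zorbax Extend-C18 (2.1 × 50 mm, 1.8 μm) at 100 μL/min, with water and acetonitrile each containing 0.1% formic acid, in positive and negative ionization mode. Dead and dwell volumes were 40 μL and 900 μL. Retention time was taken from computationally picked adduct peaks, each manually inspected, with data collected over 3 months.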

Structure (SMILES)	RP-LC retention time [s]
CN(C)S(=O)(=O)N1CCC(c2nnc(C(F)(F)F)o2)CC1	758
CCOc1ccc(CC(=O)Nc2ccc(-c3nc(-c4ccccc4)co3)cc2)cc1OCC	1150
Cc1cc(Nc2cc(CN3CCOCC3)c3nc(C)c(Cc4ccc(Cl)cc4F)n3n2)n[nH]1	712
O=C(NCCc1c[nH]c2ccc(F)cc12)c1cncc(Br)c1	796
Cc1nc(N2CCN(c3ccccn3)CC2)c2c3c(sc2n1)CCC3	569
Cc1ccc(S(=O)(=O)[C@H]2CS(=O)(=O)C[C@@H]2N2CCN(c3ccc(F)cc3)CC2)cc1	962
CCCS(=O)(=O)c1nc2ccc(NS(=O)(=O)c3ccc(F)cc3F)cc2s1	934
CCC(=O)NCc1nc2c(n1CC)CN(C(=O)c1ccccc1C(F)(F)F)CC2	594
Cc1c(S(=O)(=O)NC2CC2)c(C)n(C)c1-c1nnc(C2CCC2)o1	787
CCn1ccc2c(cc(C(=O)Nc3ccc(Cl)cc3)n2C)c1=O	819
CCc1ccc2c(c1)cc(S(=O)(=O)c1ccccc1)c(=O)n2CC(=O)NCc1ccc(F)cc1	971
COCCN(Cc1ccc(F)cc1)Cc1cc(=O)c2cc(Cl)ccc2[nH]1	880
CCc1nc2cc(-c3noc(-c4nccc5ccccc45)n3)ccc2o1	1130
Cc1cc(NS(=O)(=O)c2cc(-c3[nH]ncc3C(=O)N3CCCC3)oc2C)ccc1F	730
Cc1noc(C2CN(C(=O)CCC3CCCC3)CC23CCOCC3)n1 (centres undefined)	814
O=c1c2cnc3nc(-c4ccccc4Cl)nn3c2ccn1-c1ncn[nH]1	670
COc1cccc(CN2CCC3(CC2)CC(O)CCO3)c1OC (centres undefined)	582
Cc1cc(C(=O)N(C)C2CCc3nnc(C)n3CC2)c(C)n1Cc1ccco1 (centres undefined)	654
CC1=CC2=C(C=O)C(=O)[C@](C)(O)[C@@H](O)C2=CO1	636

Structure (SMILES)	RP-LC retention time [s]
O=C(CCn1cnc2cc(S(=O)(=O)N3CCCC3)ccc21)N1CCN(c2ccccn2)CC1	576
COc1ccc(-c2ncc3c(n2)CCN(S(=O)(=O)c2ccc4c(c2)CCC4)C3)cc1	1160
CCn1nccc1-c1cccc(-c2noc(-c3ccc(Cl)cc3)n2)c1	1340
O=C1Nc2ccccc2/C1=C\c1cnc[nH]1	617
CC(=O)N(CCC1(C(C)C)CCOC(C)(C)C1)Cc1ccccc1 (centres undefined)	1000
CCOc1ccccc1NC(=O)Cn1ncc2c(N3CCN(c4ccccn4)CC3)ncnc21	628
Cc1ncc2c(n1)C[C@@H]1CC[C@H]2N1C(=O)c1ccnn1C	584
CC(C)(C)NC(=O)C1CCN(S(=O)(=O)c2cc(-c3noc(C4CCC4)n3)cs2)CC1	1030
O=S(=O)(Cc1ccccc1)N1CCC(OCCOc2cccnc2)CC1	665
Cc1ccc(CNC(=O)C(C)n2nc(C)c3nn(-c4ccccc4)c(-n4cccc4)c3c2=O)o1 (centres undefined)	987
CC(C)Cn1cc(CCNS(=O)(=O)c2ccc(C(C)C)cc2)c2cccnc21	1110
CCCN1N=C(C(=O)N2CCCCCC2)S(=O)(=O)c2ccc(C)cc21	991
Cc1ccc2nc(-c3ccc(O)cc3)c(Nc3ccc(Cl)cc3)n2c1	671
Cc1ccc(N2C(=O)CCS2(=O)=O)cc1S(=O)(=O)N1CCC(C(N)=O)CC1	638
Cc1noc(-c2nn(C)c3c2CN(C(=O)C2(c4ccccc4)CC2)CC3)n1	757
O=S(=O)(c1ccc2nc(N3CCN(c4ccccc4)CC3)ccc2c1)N1CCCC1	921
Cc1nc(-c2ccc3c(c2)n(CC(=O)N2CCC4(CC2)OCCO4)c(=O)n3C(C)C)no1	720
COCCc1noc(-c2cnc3nc(C)ccc3c2Nc2ccccc2Cl)n1	779
Cn1c(CC2CCN(C(=O)C3CC(=O)N(C4CCCCCC4)C3)C2)nc2cccnc21 (centres undefined)	599

More lines, now with the values ahead:

RP-LC retention time [s]	Structure (SMILES)
945	CCN(CC)S(=O)(=O)c1ccc2c(c1)N(CC(=O)NCc1ccccc1)C(=O)C1CCCCN21 (centres undefined)
884	O=C(Cc1cn(Cc2ccc(Cl)cc2)c2ccccc12)NC1CC1
1060	Cc1ccc(C(=O)NCC2CCCN(S(=O)(=O)c3c(C)cc(C)cc3C)C2)cc1 (centres undefined)
737	O=C(Cc1csc(NC(=O)NC2CCCCC2)n1)NCc1c(F)cccc1F
695	O=C(CC1CCCCC1)NC(Cc1ccccc1)C(=O)N1CCN(c2ccccn2)CC1 (centres undefined)
767	O=C(Cn1c(=O)c2cccn2c2ccc(F)cc21)NCc1ccco1
787	Cc1ccc2c(c1)C(=O)NC1(CCN(C(=O)Cc3cccc(F)c3)CC1)N2C
1190	CC(Cc1ccco1)NC(=O)c1ccc(N2CCCCC2)c(S(=O)(=O)N2CCCCC2)c1 (centres undefined)
921	CCCn1cc(S(=O)(=O)Nc2cc(C)ccc2F)c2cccnc21
982	CCOc1ccc(C2Cn3nnc(-c4nc(-c5cccnc5)no4)c3CO2)cc1 (centres undefined)
956	CN(C)C(=O)[C@H](O)[C@H](Cc1ccccc1)NC(=O)c1cc2cc(Cl)ccc2[nH]1
756	CCN1CCCn2cc(S(=O)(=O)N(C)c3ccc(C)cc3)cc2C1=O
843	O=C(CCc1nnc(C(=O)Nc2ccccc2)s1)NCCc1c[nH]c2ccccc12
622	CC(=O)N1CCc2cc(CNC(=O)c3ccnn3C)ccc21
1040	CCn1cc(-c2nc(CC(=O)Nc3cc(C)ccc3OC)cs2)c2cccnc21
612	CC(C)n1cnc2cc(CNC(=O)c3c(F)cccc3F)ccc21
687	Fc1ccc(-c2noc(-c3ccc(NCCN4CCOCC4)nc3)n2)cc1
600	COCCCNCc1ccc(-c2ccc(C(C)O)cc2)o1 (centres undefined)
728	CCCNC(=O)C1CCN(c2ccc(SCC(=O)Nc3cccc(C(C)C)c3)nn2)CC1
662	Cc1cc(Nc2ccc(NC(=O)Nc3ccccc3)cc2)nc(N2CCOCC2)n1
872	COc1ccc(NC(=O)Cn2c(=O)n(-c3ccc(C)cc3)c(=O)c3c2cc(C)n3C)c(OC)c1
869	O=C(Cn1cccc1-c1nnc(C2CC2)o1)NCc1cccc(Br)c1
786	Cc1ccc(CN2CCN(CC(=O)Nc3ccc(C)cc3)C(=O)C2=O)cc1
669	Cc1cccc(Cn2nnc(C(=O)O)c2-c2cccnc2)c1
605	CC(C)c1nnc2n1CCN(C(=O)c1nccc3ccccc13)C2
808	Cc1ccc(C(=O)Nc2nccnc2C(=O)NCC2CCCO2)cc1 (centres undefined)

RP-LC retention time [s]	Structure (SMILES)
704	COc1ccc(OC)c(NC(=O)Cn2cccc2-c2nnc(C3CC3)o2)c1
548	COCCNC(=O)c1coc(NC(=O)c2cnccn2)n1
873	Cc1ccc(S(=O)(=O)NNC(=O)C23CCC(CC2)C3)cc1
698	Cc1cccc(NC(=O)C2CCc3nc(N4CCOCC4)ncc3C2)c1C (centres undefined)
722	COc1ccc(C2CCCN2C(=O)c2ccnn2C)cc1 (centres undefined)
645	CCCNC(=O)C1CCN(c2ccc(SCC(=O)Nc3cccc(F)c3)nn2)CC1
795	CCc1ccc(CNC(=O)CC2CCN(C(=O)c3[nH]c(C)c(C(=O)OC)c3C)CC2)cc1
755	CCOc1ccc(NC(=O)Cn2c(C)nc3onc(C)c3c2=O)cc1
672	Cc1ccnc(N2CCC(C(=O)NC(C)c3ccc4c(c3)OCCO4)CC2)n1 (centres undefined)
656	CCS(=O)(=O)N1CCCc2cc(C(=O)NC3CCCCC3)ccc21
1120	CCOc1nc2ccccc2nc1N1CCCC(C(=O)Nc2ccccc2CC)C1 (centres undefined)
687	CCOC(=O)C1=C(CN2CCC(c3ccccc3)C2)NC(=O)NC1c1cccc(OC)c1OC (centres undefined)
738	O=C(NCCSCc1ccco1)c1cc(-c2cccnc2)nc2ccccc12
588	COCCNC(=O)NCCn1c(-c2ccc(C)cc2)nc2ccccc21
655	Cc1c(F)cccc1NC(=O)N1CCC(n2cnnc2C2CC2)C1 (centres undefined)
1070	Cc1cc(C(=O)OCc2cc(-c3ccc4c(c3)OCCO4)on2)c(C)o1
1240	O=C(NC1(c2nc(-c3ccccc3)no2)CCCCC1)c1ccc(Br)cc1
829	Cc1ccc(NC(=O)C2CCCN(S(=O)(=O)c3cn(C(C)C)cn3)C2)cc1C (centres undefined)
1020	C[C@H]1CN(C(=O)c2ccccc2F)C[C@@H]1c1nc(-c2ccccc2)no1
825	COc1cccc(NC(=O)Cn2c(=O)c(CCC(=O)NC3CCCC3)nc3ccccc32)c1
773	Cc1ccc(NC(=O)NCC(c2cccnc2)c2cn(C)c3ccccc23)cc1Cl (centres undefined)
721	C=CCN1CC(c2nc3ccccc3n2CC(O)COc2cccc(C)c2)CC1=O (centres undefined)
697	O=C(NCc1ccccc1Br)c1ccc(-c2cccnc2)nc1
737	CC(C)NC(=O)c1nnc(-c2ccc(S(=O)(=O)N(C)C)cc2)o1
1050	Cc1ccc(S(=O)(=O)N2CCC(n3cnc4c(C)cccc4c3=O)CC2)cc1C
